One assay deals with human PDGFRβ (Homo sapiens (Human), UniProt P09619). Kind of assay: PDGFRβ kinase assay (PDGFRβ-HTRF). The assay is classed as biochemical. The following applies: 10 μM ATP; some mean values from multiple determinations. The method, boiled down:
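GST-fused human PDGFRβ fragment (R561-L1106) from Sf9 cells was preincubated 15 min with compound in 50 mM HEPES pH 7.5, 10 mM MgCl2, 2.5 mM DTT, 0.01% Triton X-100; substrate was biotinylated poly-Glu,Tyr (4:1).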
For orientation: Time-resolved FRET reads energy transfer from a long-lived donor to a nearby acceptor.

The target of assay [1] is pPDGFRβ in normal human dermal fibroblasts (NHDF) (Homo sapiens (Human), UniProt P09619). Kind of assay: Cellular pPDGFRβ inhibition assay. The assay is classed as cell-based. Particulars: NHDF stimulated with 50 ng/ml PDGF-BB, 1 h. The protocol: Thereafter, 50 ng/ml recombinant human PDGF-BB (R&D Systems, Cat. No. 220-BB-050) and a dilution series of the test substances to be examined in DMSO were added to the cells. The total volume per well was 100 μl. After incubation under the abovementioned conditions for one hour, the Opti-MEM® I Reduced Serum Medium was tapped out and discarded. Subsequently, the lysis buffer [Phospho PDGFRβ (Tyr751) Assay Whole Cell Lysate Kit, MSD, Cat. No. K150DVD-2] was made up according to the manufacturer's instructions and 70 μl of this mixture per well were added. The lysed cell samples were either stored at −20° C. or analysed immediately after the lysis in a Meso Scale SECTOR® Imager 2400 according to the abovementioned manufacturer's instructions. The measurement data were presented as percentage PDGFRβ stimulation compared to PDGF-BB-stimulated but substance-untreated cells. The IC50 values were calculated by employing the nonlinear regression (curve fit) function of GraphPad Prism 6 (La Jolla, Calif., USA).
Chain of pPDGFRβ in normal human dermal fibroblasts (NHDF) (P09619 33-1106): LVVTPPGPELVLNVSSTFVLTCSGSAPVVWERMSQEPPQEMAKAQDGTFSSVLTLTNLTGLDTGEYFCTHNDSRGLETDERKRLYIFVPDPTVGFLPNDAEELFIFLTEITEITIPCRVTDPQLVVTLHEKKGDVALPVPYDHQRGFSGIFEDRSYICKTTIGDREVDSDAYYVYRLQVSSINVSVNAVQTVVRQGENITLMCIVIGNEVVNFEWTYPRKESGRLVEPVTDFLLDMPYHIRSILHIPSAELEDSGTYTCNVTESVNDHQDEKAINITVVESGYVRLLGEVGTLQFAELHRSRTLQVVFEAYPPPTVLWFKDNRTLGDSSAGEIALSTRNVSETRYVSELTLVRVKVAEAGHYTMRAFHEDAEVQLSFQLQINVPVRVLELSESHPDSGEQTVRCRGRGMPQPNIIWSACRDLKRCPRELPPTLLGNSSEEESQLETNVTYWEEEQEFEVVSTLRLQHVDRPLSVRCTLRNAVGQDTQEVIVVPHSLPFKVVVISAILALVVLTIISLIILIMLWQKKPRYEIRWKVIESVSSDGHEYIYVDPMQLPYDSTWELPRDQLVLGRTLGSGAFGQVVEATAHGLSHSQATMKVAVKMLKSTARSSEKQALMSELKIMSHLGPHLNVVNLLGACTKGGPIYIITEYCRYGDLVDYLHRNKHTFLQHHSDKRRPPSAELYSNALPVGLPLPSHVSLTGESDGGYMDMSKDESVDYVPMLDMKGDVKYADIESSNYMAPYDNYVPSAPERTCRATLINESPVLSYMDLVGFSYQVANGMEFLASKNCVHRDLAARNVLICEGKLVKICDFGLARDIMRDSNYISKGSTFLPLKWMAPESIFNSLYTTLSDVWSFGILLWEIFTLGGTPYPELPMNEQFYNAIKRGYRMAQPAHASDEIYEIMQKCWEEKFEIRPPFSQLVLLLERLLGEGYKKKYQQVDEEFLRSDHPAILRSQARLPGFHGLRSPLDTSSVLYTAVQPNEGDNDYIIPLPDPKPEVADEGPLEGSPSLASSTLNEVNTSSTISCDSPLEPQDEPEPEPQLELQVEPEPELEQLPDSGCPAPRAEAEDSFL

Chain of human PDGFRβ (P09619 561-1106): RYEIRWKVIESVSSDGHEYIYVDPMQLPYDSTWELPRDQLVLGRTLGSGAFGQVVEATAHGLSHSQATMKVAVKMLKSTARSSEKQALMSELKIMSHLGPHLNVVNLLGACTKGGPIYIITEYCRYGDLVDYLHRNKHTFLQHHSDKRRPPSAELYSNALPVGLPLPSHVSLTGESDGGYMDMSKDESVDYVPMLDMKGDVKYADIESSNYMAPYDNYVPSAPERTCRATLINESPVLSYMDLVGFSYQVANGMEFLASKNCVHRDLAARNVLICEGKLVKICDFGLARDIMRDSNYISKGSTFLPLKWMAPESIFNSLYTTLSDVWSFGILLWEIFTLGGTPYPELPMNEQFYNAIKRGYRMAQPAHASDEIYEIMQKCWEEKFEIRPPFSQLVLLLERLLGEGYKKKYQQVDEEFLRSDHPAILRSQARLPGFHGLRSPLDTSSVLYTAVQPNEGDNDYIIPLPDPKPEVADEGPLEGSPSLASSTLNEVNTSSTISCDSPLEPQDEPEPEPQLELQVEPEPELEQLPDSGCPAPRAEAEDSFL

One may read the IC50 as the concentration needed to halve the response being measured. A low value points to greater potency in that assay. Consider `Cc1cc(F)c(Nc2ccnc3c2C(=O)Nc2cc(CN4CCN(CC(F)F)CC4)ccc2N3)cc1O` [Example 227, 8-{[4-(2,2-Difluoroethyl)piperazin-1-yl]methyl}-4-[(2-fluoro-5-hydroxy-4-methylphenyl)amino]-6,11-dihydro-5H-pyrido[2,3-b][1,5]benzodiazepin-5-one], for which the IC50 was found to be 6.38 nM against human PDGFRβ and 554 nM in assay [1].
For the molecule `Cc1cc(F)c(Nc2ccnc3c2C(=O)Nc2cc(CN4C[C@H](O)C[C@H]4CO)ccc2N3)cc1O` [Example 64, 4-[(2-Fluoro-5-hydroxy-4-methylphenyl)amino]-8-{[(2S,4R)-4-hydroxy-2-(hydroxymethyl)pyrrolidin-1-yl]methyl}-6,11-dihydro-5H-pyrido[2,3-b][1,5]benzodiazepin-5-one], the IC50 against human PDGFRβ came to 0.68 nM; in assay [1], 14.3 nM.
The corresponding values for `Cc1cc(F)c(Nc2ccnc3c2C(=O)Nc2cc(CNC(CO)CO)ccc2N3)cc1O` [Example 78, 8-{[(1,3-Dihydroxypropan-2-yl)amino]methyl}-4-[(2-fluoro-5-hydroxy-4-methylphenyl)amino]-6,11-dihydro-5H-pyrido[2,3-b][1,5]benzodiazepin-5-one] are 0.974 nM and 32.6 nM.
For `CCNCc1ccc2c(c1)NC(=O)c1c(Nc3cc(O)c(C)cc3F)ccnc1N2` [Example 31, 8-[(Ethylamino)methyl]-4-[(2-fluoro-5-hydroxy-4-methylphenyl)amino]-6,11-dihydro-5H-pyrido[2,3-b][1,5]benzodiazepin-5-one] the same measures were 1.22 nM and 33.3 nM.
For `Cc1cc(F)c(Nc2ccnc3c2C(=O)Nc2cc(CNC(CO)C(C)C)ccc2N3)cc1O` (racemic) [Example 75, rac-4-[(2-Fluoro-5-hydroxy-4-methylphenyl)amino]-8-{[(1-hydroxy-3-methylbutan-2-yl)amino]methyl}-6,11-dihydro-5H-pyrido[2,3-b][1,5]benzodiazepin-5-one] the same measures were 0.826 nM and 43.9 nM.
Regarding `CCN(CC)Cc1ccc2c(c1)NC(=O)c1c(Nc3cc(O)c(C)cc3F)ccnc1N2` [Example 28, 8-[(Diethylamino)methyl]-4-[(2-fluoro-5-hydroxy-4-methylphenyl)amino]-6,11-dihydro-5H-pyrido[2,3-b][1,5]benzodiazepin-5-one], the half-maximal inhibitory concentration (IC50) against human PDGFRβ came to 0.953 nM; in assay [1] it was 21.6 nM.
Consider `Cc1ccc(O)cc1Nc1ccnc2c1C(=O)Nc1cc(CN3CCC(O)CC3)ccc1N2` [Example 42, 4-[(5-Hydroxy-2-methylphenyl)amino]-8-[(4-hydroxypiperidin-1-yl)methyl]-6,11-dihydro-5H-pyrido[2,3-b][1,5]benzodiazepin-5-one], for which the IC50 amounted to 2.44 nM against human PDGFRβ and 140 nM in assay [1].
For `Cc1cc(F)c(Nc2ccnc3c2C(=O)Nc2cc(CN(C)C[C@H](C)O)ccc2N3)cc1O` [Example 202, 4-[(2-Fluoro-5-hydroxy-4-methylphenyl)amino]-8-({[(2S)-2-hydroxypropyl](methyl)amino}methyl)-6,11-dihydro-5H-pyrido[2,3-b][1,5]benzodiazepin-5-one] the same measures were 1.55 nM and 39.1 nM.
For `Cc1cc(F)c(Nc2ccnc3c2C(=O)Nc2cc(CN(C)CCN)ccc2N3)cc1O` [Example 209, 8-{[(2-Aminoethyl)(methyl)amino]methyl}-4-[(2-fluoro-5-hydroxy-4-methylphenyl)amino]-6,11-dihydro-5H-pyrido[2,3-b][1,5]benzodiazepin-5-one], the IC50 is 0.739 nM on human PDGFRβ and 215 nM in assay [1].
Take `CCN(C)Cc1ccc2c(c1)NC(=O)c1c(Nc3cc(O)c(C)cc3F)ccnc1N2` [Example 49, 8-{[Ethyl(methyl)amino]methyl}-4-[(2-fluoro-5-hydroxy-4-methylphenyl)amino]-6,11-dihydro-5H-pyrido[2,3-b][1,5]benzodiazepin-5-one]: the half-maximal inhibitory concentration (IC50) came to 0.487 nM at human PDGFRβ and 41.1 nM in assay [1].
Regarding `CCN(CCO)C(=O)c1ccc2c(c1)NC(=O)c1c(Nc3cc(O)c(C)cc3F)ccnc1N2` [Example 162, N-Ethyl-4-[(2-fluoro-5-hydroxy-4-methylphenyl)amino]-N-(2-hydroxyethyl)-5-oxo-6,11-dihydro-5H-pyrido[2,3-b][1,5]benzodiazepine-8-carboxamide], the values for the concentration for half-maximal inhibition (IC50) (against human PDGFRβ; in assay [1]) were 12.1 nM and 890 nM, respectively.
On to `Cc1cc(F)c(Nc2ccnc3c2C(=O)Nc2cc(CN4CCCC4)ccc2N3)cc1O` [Example 32, 4-[(2-Fluoro-5-hydroxy-4-methylphenyl)amino]-8-(pyrrolidin-1-ylmethyl)-6,11-dihydro-5H-pyrido[2,3-b][1,5]benzodiazepin-5-one], for which the concentration for half-maximal inhibition (IC50) came out at 3.25 nM at human PDGFRβ and 22.8 nM in assay [1].
The corresponding values for `CCOCCN(CC)Cc1ccc2c(c1)NC(=O)c1c(Nc3cc(O)c(C)cc3F)ccnc1N2` [Example 50, 8-{[(2-Ethoxyethyl) (ethyl)amino]methyl}-4-[(2-fluoro-5-hydroxy-4-methylphenyl)amino]-6,11-dihydro-5H-pyrido[2,3-b][1,5]benzodiazepin-5-one] are 1.13 nM and 97.4 nM.
The corresponding values for `Cc1cc(F)c(Nc2ccnc3c2C(=O)Nc2cc(CNC4CC(O)C4)ccc2N3)cc1O` (stereo not drawn) [Example 187, 4-[(2-Fluoro-5-hydroxy-4-methylphenyl)amino]-8-{[(3-hydroxycyclobutyl)amino]methyl}-6,11-dihydro-5H-pyrido[2,3-b][1,5]benzodiazepin-5-one] are 1.51 nM and 41.3 nM.
The corresponding values for `Cc1cc(F)c(Nc2ccnc3c2C(=O)Nc2cc(CNC4CC4)ccc2N3)cc1O` [Example 30, 8-[(Cyclopropylamino)methyl]-4-[(2-fluoro-5-hydroxy-4-methylphenyl)amino]-6,11-dihydro-5H-pyrido[2,3-b][1,5]benzodiazepin-5-one] are 2.17 nM and 111 nM.
`Cc1cc(F)c(Nc2ccnc3c2C(=O)Nc2cc(CN[C@H]4CC[C@H](O)CC4)ccc2N3)cc1O` [Example 76, 4-[(2-Fluoro-5-hydroxy-4-methylphenyl)amino]-8-{[(trans-4-hydroxycyclohexyl)amino]methyl}-6,11-dihydro-5H-pyrido[2,3-b][1,5]benzodiazepin-5-one]: the 50% inhibitory concentration (IC50) against human PDGFRβ is 1.58 nM; in assay [1], 11.3 nM.
On to `Cc1cc(F)c(Nc2ccnc3c2C(=O)Nc2cc(CN4CCOCC4)ccc2N3)cc1O` [Example 29, 4-[(2-Fluoro-5-hydroxy-4-methylphenyl)amino]-8-(morpholin-4-ylmethyl)-6,11-dihydro-5H-pyrido[2,3-b][1,5]benzodiazepin-5-one], for which the IC50 was 2.89 nM against human PDGFRβ and 35.3 nM in assay [1].
With `CCN(CC)Cc1ccc2c(c1)NC(=O)c1c(Nc3cc(O)c(Cl)cc3F)ccnc1N2` [Example 174, 4-[(4-Chloro-2-fluoro-5-hydroxyphenyl)amino]-8-[(diethylamino)methyl]-6,11-dihydro-5H-pyrido[2,3-b][1,5]benzodiazepin-5-one], the IC50 was found to be 1.25 nM against human PDGFRβ and 106 nM in assay [1].
For `CCN(CCOC)Cc1ccc2c(c1)NC(=O)c1c(Nc3cc(O)c(C)cc3F)ccnc1N2` [Example 55, 8-{[Ethyl(2-methoxyethyl)amino]methyl}-4-[(2-fluoro-5-hydroxy-4-methylphenyl)amino]-6,11-dihydro-5H-pyrido[2,3-b][1,5]benzodiazepin-5-one] the same measures were 0.905 nM and 60.7 nM.
The corresponding values for `Cc1cc(F)c(Nc2ccnc3c2C(=O)Nc2cc(CN(C)CCO)ccc2N3)cc1O` [Example 198, 4-[(2-Fluoro-5-hydroxy-4-methylphenyl)amino]-8-{[(2-hydroxyethyl)(methyl)amino]methyl}-6,11-dihydro-5H-pyrido[2,3-b][1,5]benzodiazepin-5-one] are 0.962 nM and 49.8 nM.
For `CCN(Cc1ccc2c(c1)NC(=O)c1c(Nc3cc(O)c(C)cc3F)ccnc1N2)C(C)C` [Example 51, 8-{[Ethyl(isopropyl)amino]methyl}-4-[(2-fluoro-5-hydroxy-4-methylphenyl)amino]-6,11-dihydro-5H-pyrido[2,3-b][1,5]benzodiazepin-5-one] the same measures were 1.15 nM and 22.1 nM.
In turn, `Cc1cc(F)c(Nc2ccnc3c2C(=O)Nc2cc(CN(C)CCN(C)C)ccc2N3)cc1O` [Example 203, 8-({[2-(Dimethylamino)ethyl](methyl)amino}methyl)-4-[(2-fluoro-5-hydroxy-4-methylphenyl)amino]-6,11-dihydro-5H-pyrido[2,3-b][1,5]benzodiazepin-5-one] registered an IC50 at human PDGFRβ of 1.87 nM.
The same measure, in the same setting: the value for `Cc1cc(F)c(Nc2ccnc3c2C(=O)Nc2cc(CN4CCC(O)CC4)ccc2N3)cc1O` [Example 45, 4-[(2-Fluoro-5-hydroxy-4-methylphenyl)amino]-8-[(4-hydroxypiperidin-1-yl)methyl]-6,11-dihydro-5H-pyrido[2,3-b][1,5]benzodiazepin-5-one] was 0.928 nM; that for `Cc1cc(F)c(Nc2ccnc3c2C(=O)Nc2cc(C(=O)N4CCC(CCO)C4)ccc2N3)cc1O` (racemic) [Example 181, rac-4-[(2-Fluoro-5-hydroxy-4-methylphenyl)amino]-8-{[3-(2-hydroxyethyl)pyrrolidin-1-yl]carbonyl}-6,11-dihydro-5H-pyrido[2,3-b][1,5]benzodiazepin-5-one] was 8.91 nM.

The record behind these values is patent publication US10047096B2, “Substituted pyridobenzodiazepinone-derivatives and use thereof” (Bayer Pharma Aktiengesellschaft, priority 2014, dated 2018).
